Test results from patent publication US7704995B2 (Exelixis, Inc., priority 2003, dated 2010).
Like-named read-outs stand apart in the source and are kept apart here.

Target: T1, Chk1 (Homo sapiens, UniProt O14757)
T1 construct: purchased Upstate Biotechnology
T1 sequence (O14757 1-476): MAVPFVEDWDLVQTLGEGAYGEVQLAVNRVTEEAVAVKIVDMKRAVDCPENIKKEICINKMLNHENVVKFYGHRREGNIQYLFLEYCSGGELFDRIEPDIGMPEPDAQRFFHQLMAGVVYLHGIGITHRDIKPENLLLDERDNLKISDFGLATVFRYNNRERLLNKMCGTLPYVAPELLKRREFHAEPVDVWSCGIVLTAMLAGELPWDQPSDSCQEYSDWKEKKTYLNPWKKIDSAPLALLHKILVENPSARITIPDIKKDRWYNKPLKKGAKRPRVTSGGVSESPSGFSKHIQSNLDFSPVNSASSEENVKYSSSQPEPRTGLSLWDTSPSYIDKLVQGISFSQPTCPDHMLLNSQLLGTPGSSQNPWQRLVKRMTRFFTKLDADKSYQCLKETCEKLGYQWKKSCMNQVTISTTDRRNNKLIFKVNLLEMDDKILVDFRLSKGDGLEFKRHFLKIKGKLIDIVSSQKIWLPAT
Assay: Chk1 kinase assay: incorporation of γ-33P ATP into immobilized myelin basic protein
Type: biochemical
Details: read-out: Chk1 IC50
Procedure, shortened: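 Plates coated with MBP, then kinase reactions in Hepes pH 7.6 buffer with 10 mM MgCl2 and 1% DMSO were started by adding unlabeled plus γ-33P ATP (10 μM for Chk1 at 10 nM enzyme; 30 μM for Chk2 at 20 nM enzyme). After 1 h at room temperature, plates were washed and counted.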

[1] = Table 11, Chk1 only, class symbols A-D

Compound | IC50 | further results
CNC(=O)c1nc(-c2cccc(C(=O)NCc3ccc(C)c(C)c3)c2)cnc1N [Example 286, 3-amino-6-[3-({[(3,4-dimethylphenyl)methyl]amino}carbonyl)phenyl]-N-methylpyrazine-2-carboxamide] | 50 to 1000 nM | –
Nc1ncc(-c2cccc(C(=O)NCc3cccc(Cl)c3F)c2)nc1C(=O)N[C@H]1CCCCNC1 [Example 1024, 3-amino-N-[(3S)-azepan-3-yl]-6-[3-({[(3-chloro-2-fluorophenyl)methyl]amino}carbonyl)phenyl]pyrazine-2-carboxamide] | – | IC50 [1]: < 50 nM
NCCNC(=O)c1nc(-c2cccc(C(=O)NCc3ccccc3)c2)cnc1N [Example 616, 3-amino-N-(2-aminoethyl)-6-(3-{[(phenylmethyl)amino]carbonyl}phenyl)pyrazine-2-carboxamide] | – | IC50 (Table 11, Chk1 only): 50 to 1000 nM
CNC(=O)c1nc(-c2cccc(C(=O)NCC3CCN(Cc4ccccc4)CC3)c2)cnc1N [Example 200, 3-amino-N-methyl-6-{3-[({[1-(phenylmethyl)piperidin-4-yl]methyl}amino)carbonyl]phenyl}pyrazine-2-carboxamide] | ≥ 10000 nM | –
COC(=O)c1nc(-c2cccc(CNC3CCc4c(F)ccc(F)c43)c2)cnc1N (centres unmarked) [Example 455, methyl 3-amino-6-(3-{[(4,7-difluoro-2,3-dihydro-1H-inden-1-yl)amino]methyl}phenyl)pyrazine-2-carboxylate] | – | IC50 (Table 11, Chk1 only): 50 to 1000 nM
CNC(=O)c1nc(-c2cccc(C(=O)NC(C)c3ccc(F)cc3)c2)cnc1N (centres unmarked) [Example 112, 3-amino-6-[3-({[1-(4-fluorophenyl)ethyl]amino}carbonyl)phenyl]-N-methylpyrazine-2-carboxamide] | 1000 to 10000 nM | –
Nc1ncc(-c2cccc(NC(=O)Cc3ccc(F)cc3F)c2)nc1C(=O)N[C@H]1CCCNC1 [Example 897, 3-amino-6-(3-{[(2,4-difluorophenyl)acetyl]amino}phenyl)-N-[(3S)-piperidin-3-yl]pyrazine-2-carboxamide] | – | IC50 [1]: < 50 nM
Nc1ncc(-c2cccc(C(=O)NCCc3ccc(F)cc3)c2)nc1C(=O)N[C@H]1CCCNC1 [Example 925, 3-amino-6-[3-({[2-(4-fluorophenyl)ethyl]amino}carbonyl)phenyl]-N-[(3S)-piperidin-3-yl]pyrazine-2-carboxamide] | – | IC50 [1]: < 50 nM
CN1CCN(NC(=N)c2nc(-c3cccc(C(=O)NCc4ccccc4)c3)cnc2N)CC1 [Example 621, 3-(5-amino-6-{imino[(4-methylpiperazin-1-yl)amino]methyl}pyrazin-2-yl)-N-(phenylmethyl)benzamide] | – | IC50 (Table 11, Chk1 only): ≥ 10000 nM
CNC(=O)c1nc(-c2cccc(CNCc3ccccc3F)c2)cnc1N [Example 399, 3-amino-6-[3-({[(2-fluorophenyl)methyl]amino}methyl)phenyl]-N-methylpyrazine-2-carboxamide] | < 50 nM | –

More lines, main results first:

IC50 | Compound | further results
50 to 1000 nM | CNC(=O)c1nc(-c2cccc(CNCc3cccc(F)c3F)c2)cnc1N [Example 389, 3-amino-6-[3-({[(2,3-difluorophenyl)methyl]amino}methyl)phenyl]-N-methylpyrazine-2-carboxamide] | –
50 to 1000 nM | CNC(=O)c1nc(-c2cncc(C(=O)NCc3c(F)cccc3F)c2)cnc1N [Example 400, 3-amino-6-[5-({[(2,6-difluorophenyl)methyl]amino}carbonyl)pyridin-3-yl]-N-methylpyrazine-2-carboxamide] | –
50 to 1000 nM | CNC(=O)c1nc(-c2cccc(CNC(=O)c3ccc(C(C)(C)C)cc3)c2)cnc1N [Example 378, 3-amino-6-{3-[({[4-(1,1-dimethylethyl)phenyl]carbonyl}amino)methyl]phenyl}-N-methylpyrazine-2-carboxamide] | –
50 to 1000 nM | CNC(=O)c1nc(-c2cccc(C(=O)NCc3c(OC)cc(OC)cc3OC)c2)cnc1N [Example 258, 3-amino-N-methyl-6-{3-[({[2,4,6-tris(methyloxy)phenyl]methyl}amino)carbonyl]phenyl}pyrazine-2-carboxamide] | –
